Source: patent US20130178483A1, “Methods and Compositions for Inhibition of Bone Resorption” (Pharmacyclics, Inc., priority 2011, published 2013)
Blank lines part the entries; values can stand above or below the compound they belong to.

How the values were obtained:
[1] = test system: BCR-activated calcium flux in Ramos cells; assay: BCR-induced calcium flux assay in anti-IgM stimulated Ramos cells; conditions: Homo sapiens, read-out: Ramos Cell Ca Flux IC50 (nM)
[2] = test system: human monocyte derived osteoclasts; assay: Human monocyte derived osteoclastogenesis (M-CSF/RANKL), TRAP and actin staining; type: cell-based
Description: Further, as depicted in FIG. 18, and FIG. 19, the BTK inhibitors described herein inhibit RANKL induced Btk, PLC-g, Erk and NF-kB activation of osteoclasts derived from human monocytes and murine RAW cells.
We confirmed by immunoblotting that activation of Btk mediates osteoclastogenesis induced by M-CSF and RANKL in CD14+ OC. precursor cells. Phosphorylation of Btk and its downstream PLCγ2 was induced by M-CSF/RANKL in CD14+ monocytes from human donors and mouse RAW 264.7 cells (FIG. 20A). […] At the end of 2-week culture of M-CSF/RANKL-stimulated normal donor monocytes (donor number>4) in plastic tissue culture plates, we observed a significant reduction in multinucleated mature Osteoclast (OC) numbers (TRAP+, >3 nuclei and >50 μm per OC cell, p<0.01), as well as irregular TRAP staining pattern of multinucleated OC influenced by the BtK inhibitor, in a dose-dependent fashion (FIG. 20C-E). To further assess the effects of PCI-32765 on osteoclastogenesis, OC precursor cells from human donors were cultured on glass cover slips, followed by immunofluorescence staining for actin cytoskeleton and pit formation assay for bone resorption activity. […] Most importantly, the Btk inhibitors described herein profoundly diminished bone erosion area formed by OCs cultured on dentine slices in pit formation assays, with or without dexamethasone (FIG. 21D).

[3] = test system: INA-6 MM cells in implanted human bone; assay: SCID-hu model of human multiple myeloma bone disease; type: in vivo, SCID-hu mice; conditions: 12 mg/kg, vs vehicle control
Description: FIG. 22A-22F show inhibition of multiple myeloma (MM) cell growth and MM-induced bone lysis in a murine model of human MM by administration of a Btk inhibitor described herein. […] Tissue slides were stained with H&E and immunohistochemically analyzed for CD138 (MM), TRAP(OC), and ALP (OB). Original magnification, ×200 except for ALP (×400). […] Effects of Btk inhibitor treatment were also quantitated in the left (mouse L) and right (mouse R) normal mouse extremities (FIG. 22F)
Btk inhibition by the compounds described herein and suppression of MM cell growth and […] were studied in vivo in a mouse model of MM bone disease, the SCID-hu model (FIG. 22A). MM cell growth was quantitated by measuring soluble IL6R (sIL6R) secreted by INA-6 MM cells in murine blood, and mice were treated with a compound of Formula (A), (B), (C), or (D) following first detection of tumor growth. […] Histologic analysis and immunohistochemistry for CD138 and TRAP staining confirmed decreased numbers of MM cells and reduced bone resorption activity in the human bones retrieved from the mice treated with the compound, as compared with the control group (FIG. 22B).

[4] = 24 h post dose

- IC50 [1]: 36 nM
SMILES: CN(C)C/C=C/C(=O)N1CCCC(n2nc(-c3ccc(Oc4ccccc4)cc3)c3c(N)ncnc32)C1 (stereo not drawn) [Compound 15, (E)-1-(3-(4-amino-3-(4-phenoxyphenyl)-1H-pyrazolo[3,4-d]pyrimidin-1-yl)piperidin-1-yl)-4-(dimethylamino)but-2-en-1-one]

SMILES: C=CC(=O)N1CCC[C@@H](n2nc(-c3ccc(Oc4ccccc4)cc3)c3c(N)ncnc32)C1 [PCI-32765]
- numbers of mature OC, treated versus normal OC cultures ([2]; human OC precursor cells on glass cover slips): Significantly reduced numbers of mature OC
- spreading area per cell and number of nuclei per OC ([2]; human OCs on glass cover slips, p<0.01): expanded spreading area per cell
- MM-induced osteolysis / bone lysis in implanted human bone ([3]; micro-CT): significantly reduced osteolysis
- osteogenic activity (ALP expression, ALP+/BS) in implanted human bone ([3]; p<0.01): enhanced osteogenic activity

- levels twenty four hours post dose [4]: below the level of quantitation
SMILES: C=CC(=O)N1CCCC(n2nc(-c3ccc(Oc4ccccc4)cc3)c3c(N)ncnc32)C1 (stereo not drawn) [Compound 4, 1-(3-(4-amino-3-(4-phenoxyphenyl)-1H-pyrazolo[3,4-d]pyrimidin-1-yl)piperidin-1-yl)prop-2-en-1-one]
